According to US20260285867A1, “IMIDAZOTRIAZINE DERIVATIVES AS IL-17 MODULATORS” (UCB BIOPHARMA SRL, priority 2023, published 2026):

Target: T1, IL-17A (Homo sapiens, UniProt Q16552)
T1 sequence (Q16552 24-155): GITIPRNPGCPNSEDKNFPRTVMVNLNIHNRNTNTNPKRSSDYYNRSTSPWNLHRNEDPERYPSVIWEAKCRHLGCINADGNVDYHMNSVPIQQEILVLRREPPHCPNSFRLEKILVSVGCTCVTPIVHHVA
Test: Inhibition of IL-17A induced IL-6 release from dermal fibroblast cell line (HDF cell line assay)
Assay type: cell-based
Conditions: HDF cells stimulated with IL-17A 50 pM + TNFα 25 pM, IL-6 release by HTRF
From the text: Inhibition of IL-17A Induced IL-6 Release from Dermal Fibroblast Cell Line The purpose of this assay is to test the neutralising ability to IL-17 proteins, in a human primary cell system. Stimulation of normal human dermal fibroblasts (HDF) with IL-17 alone produces only a very weak signal but in combination with certain other cytokines, such as TNFα, a synergistic effect can be seen in the production of inflammatory cytokines, i.e. IL-6. HDFs were stimulated with IL-17A (50 pM) in combination with TNF-α (25 pM). The resultant IL-6 response was then measured using a homogenous time-resolved FRET kit from Cisbio. The kit utilises two monoclonal antibodies, one labelled with Eu-Cryptate (Donor) and the second with d2 or XL665 (Acceptor). The intensity of the signal is proportional to the concentration of IL-6 present in the sample (Ratio is calculated by 665/620×104). The ability of a compound to inhibit IL-17 induced IL-6 release from human dermal fibroblasts is measured in this assay. […] The cells were re-suspended in complete media (5 mL) counted and adjusted to a concentration of 3.125×10^4 cells/mL before being added to the 384 well assay plate (Corning #3701) at 40 μL per well. […] The mixture was incubated at room temperature for 3 h with gentle shaking (<400 rpm) before being read on a Synergy Neo 2 plate reader (Excitation: 330 nm; Emission: […]).

## Cc1nonc1C(=O)N[C@H](c1cn2ncc(C3(C(=O)NCC(C)(F)F)CC(C)(O)C3)nc2n1)C1CCC(F)(F)CC1 (single isomer, unassigned) [Example 1]
Listed as 1 (Peak 1)
  pIC50: 7.7

## Cc1nonc1C(=O)N[C@H](c1cn2ncc(C3(C(=O)NCC(C)(F)F)CC(C)(O)C3)nc2n1)C1CCC(F)(F)CC1 (single isomer, unassigned) [Example 2]
Listed as 2 (Peak 2)
  pIC50: 8.4
